Results on 30 compounds are retold here after patent US8361998B2, “Compounds and their use as IKACh blockers” (AstraZeneca AB, priority 2010, dated 2013).

The target of the experiment is T1, human cardiac ion channel proteins hKir3.1/Kir3.4 (Homo sapiens, UniProt P48544+P48549).
T1 construct: expressed in transfected cells
T1 sequence (P48549 1-501): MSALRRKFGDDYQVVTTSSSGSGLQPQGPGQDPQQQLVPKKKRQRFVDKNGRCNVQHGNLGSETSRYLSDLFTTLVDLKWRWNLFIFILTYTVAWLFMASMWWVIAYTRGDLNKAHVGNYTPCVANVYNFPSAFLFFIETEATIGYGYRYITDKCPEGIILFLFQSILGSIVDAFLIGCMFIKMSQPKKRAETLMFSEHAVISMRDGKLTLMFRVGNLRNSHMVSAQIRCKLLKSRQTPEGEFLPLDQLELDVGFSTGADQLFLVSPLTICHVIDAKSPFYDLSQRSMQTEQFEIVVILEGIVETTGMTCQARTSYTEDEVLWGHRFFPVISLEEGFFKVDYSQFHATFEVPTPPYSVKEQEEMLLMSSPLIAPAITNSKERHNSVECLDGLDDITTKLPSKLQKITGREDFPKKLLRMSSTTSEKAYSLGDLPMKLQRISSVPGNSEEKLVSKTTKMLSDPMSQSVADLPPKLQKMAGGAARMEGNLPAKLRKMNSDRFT
T1 sequence (P48544 1-419): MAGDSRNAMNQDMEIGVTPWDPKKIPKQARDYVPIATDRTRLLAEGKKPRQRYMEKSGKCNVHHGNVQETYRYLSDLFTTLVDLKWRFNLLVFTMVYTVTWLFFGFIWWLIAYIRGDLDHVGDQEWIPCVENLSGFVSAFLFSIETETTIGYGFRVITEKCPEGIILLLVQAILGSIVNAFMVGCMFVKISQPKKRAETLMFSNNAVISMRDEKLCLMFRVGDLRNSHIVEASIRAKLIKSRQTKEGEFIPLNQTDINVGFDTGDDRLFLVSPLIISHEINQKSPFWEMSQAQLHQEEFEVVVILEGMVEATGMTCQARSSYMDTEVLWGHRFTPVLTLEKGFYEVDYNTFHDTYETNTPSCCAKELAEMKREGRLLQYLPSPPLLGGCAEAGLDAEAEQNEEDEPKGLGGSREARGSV
As to the kind of experiment: Atomic Absorption Screening (AAS) Rb efflux assay of hKir3.1/Kir3.4 block, carbachol/high K+ stimulated, 10-pt or 7-pt CR. In kind it is cell-based. The procedure, abridged:
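Mean IC50s derive from >4 replicates over 0.003–67 μmol/L (10-point) or >3 replicates over 0.037–27 μmol/L (7-point), both threefold steps. Rb-loaded (3 h, 37° C) CHO-K1 cells stably expressing hKir3.1/Kir3.4 saw compound for 5 min at RT before 10-min channel opening by carbachol 10 μM/KCl 20 mM final. Released Rb was quantified by atomic absorption.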

The mark [1] stands for this setting: 10-pt CR (0.003 to 67 μmol/L), AAS Rb efflux, CHO-K1 cells expressing hKir3.1/Kir3.4, mean of >4 replicates, read-out: IKACh IC50 10-pt CR, AAS.
Where [2] appears, read: printed as IC50 >67 μM in the 10-pt CR assay or IC50 >27 μM in the 7-pt CR assay, assay format per compound not stated, read-out: IC50.

Usually IC50 stands for the concentration that gives 50% inhibition.

Where two headings read alike, the source gives them in different places.

Turning to `CN(C(=O)c1ccc(F)cc1Cl)[C@H](CN1CC(O)C1)C1CCC1` [Example 39.1, (S)-2-chloro-N-(1-cyclobutyl-2-(3-hydroxyazetidin-1-yl)ethyl)-4-fluoro-N-methylbenzamide], the half-inhibitory concentration (IC50) under setting [1] was found to be 1100 nM.

Take `CN(C(=O)c1ccc(F)c(F)c1)[C@H](CN1CC(O)C1)C1CCC1` [Example 39.3, (S)—N-(1-Cyclobutyl-2-(3-hydroxyazetidin-1-yl)ethyl)-3,4-difluoro-N-methylbenzamide]: under setting [1], the half-maximal inhibitory concentration (IC50) stood at 410 nM.

With `CN(C(=O)c1ccc(F)cc1F)[C@H](CN1CC(O)C1)C1CCC1` [Example 39.4, (S)—N-(1-Cyclobutyl-2-(3-hydroxyazetidin-1-yl)ethyl)-2,4-difluoro-N-methylbenzamide], under setting [1], the IC50 is 7800 nM.

In the case of `COc1ccc(C(=O)N(C)[C@H](CN2CC(O)C2)C2CCC2)c(F)c1` [Example 39.5, (S)—N-(1-Cyclobutyl-2-(3-hydroxyazetidin-1-yl)ethyl)-2-fluoro-4-methoxy-N-methylbenzamide], under setting [1], the IC50 turned out to be 1100 nM.

Consider `COc1ccc(C(=O)N(C)[C@H](CN2CC(O)C2)C2CCC2)cc1F` [Example 39.6, (S)—N-(1-Cyclobutyl-2-(3-hydroxyazetidin-1-yl)ethyl)-3-fluoro-4-methoxy-N-methylbenzamide], for which, under setting [1], the half-maximal inhibitory concentration (IC50) amounted to 480 nM.

With `CN(C(=O)c1ccccc1)[C@H](CN1CC(O)C1)C1CCC1` [Example 39.7, (S)—N-(1-Cyclobutyl-2-(3-hydroxyazetidin-1-yl)ethyl)-N-methylbenzamide], under setting [1], the 50% inhibitory concentration (IC50) came out at 1400 nM.

Regarding `CN(C(=O)c1ccc(C(F)(F)F)cc1)[C@H](CN1CC(O)C1)C1CCC1` [Example 39.8, (S)—N-(1-Cyclobutyl-2-(3-hydroxyazetidin-1-yl)ethyl)-N-methyl-4-(trifluoromethyl)benzamide], under setting [1], the IC50 worked out at 230 nM.

For the compound `COc1ccc(C(=O)N(C)[C@H](CN2CC(O)C2)C2CCC2)cc1C` [Example 39.9, (S)—N-(1-Cyclobutyl-2-(3-hydroxyazetidin-1-yl)ethyl)-4-methoxy-N,3-dimethylbenzamide], the IC50 under setting [1] was determined as 340 nM.

Take `Cc1ccc(F)c(C(=O)N(C)[C@H](CN2CC(O)C2)C2CCC2)c1` [Example 39.10, (S)—N-(1-Cyclobutyl-2-(3-hydroxyazetidin-1-yl)ethyl)-2-fluoro-N,5-dimethylbenzamide]: the IC50 under setting [1] stood at 810 nM.

Take `CC[C@@H](CN1CC(O)C1)N(C)C(=O)c1ccc(Cl)c(F)c1` [Example 39.11, (S)-4-Chloro-3-fluoro-N-(1-(3-hydroxyazetidin-1-yl)butan-2-yl)-N-methylbenzamide]: the half-inhibitory concentration (IC50) under setting [1] came out at 1600 nM.

On to `CN(C(=O)c1ccc(F)cc1)[C@H](CN1CC(O)C1)C1CCC1` [Example 39.13, (S)—N-(1-Cyclobutyl-2-(3-hydroxyazetidin-1-yl)ethyl)-4-fluoro-N-methylbenzamide], for which, under setting [1], the IC50 is 160 nM.

For `CN(C(=O)c1cccc(C(F)F)c1)[C@H](CN1CC(O)C1)C1CCC1` [Example 39.15, (S)—N-(1-Cyclobutyl-2-(3-hydroxyazetidin-1-yl)ethyl)-3-(difluoromethyl)-N-methylbenzamide], under setting [1], the IC50 came to 250 nM.

For `C[C@@H](CN1CC(O)C1)N(C)C(=O)c1ccc(Cl)cc1` [Example 40.1, (S)-4-Chloro-N-(1-(3-hydroxyazetidin-1-yl)propan-2-yl)-N-methylbenzamide], the IC50 under setting [1] came to 9700 nM.

Take `Cc1ccc(C(=O)N(C)[C@@H](C)CN2CC(O)C2)cc1C` [Example 40.2, (S)—N-(1-(3-Hydroxyazetidin-1-yl)propan-2-yl)-N,3,4-trimethylbenzamide]: under setting [1], the IC50 is 8500 nM.

In the case of `C[C@@H](CN1CC(O)C1)N(C)C(=O)c1ccc(Cl)c(F)c1` [Example 40.3, (S)-4-Chloro-3-fluoro-N-(1-(3-hydroxyazetidin-1-yl)propan-2-yl)-N-methylbenzamide], under setting [1], the IC50 stood at 9400 nM.

As to `Cc1cc(C(=O)N(C)[C@@H](C)CN2CC(O)C2)ccc1Cl` [Example 40.4, (S)-4-Chloro-N-(1-(3-hydroxyazetidin-1-yl)propan-2-yl)-N,3-dimethylbenzamide], the IC50 under setting [1] was found to be 6100 nM.

For the compound `C[C@@H](CN1CC(O)C1)N(C)C(=O)c1ccc(Br)cc1` [Example 41, (S)-4-Bromo-N-(1-(3-hydroxyazetidin-1-yl)propan-2-yl)-N-methylbenzamide], under setting [1], the IC50 stood at 7300 nM.

For `CC[C@@H](CN1CC(O)C1)N(C)C(=O)c1ccc(Br)cc1` [Example 42, (S)-4-Bromo-N-(1-(3-hydroxyazetidin-1-yl)butan-2-yl)-N-methylbenzamide], under setting [1], the IC50 came to 4000 nM.

Turning to `CCC[C@@H](CN1CCC(O)CC1)N(C)C(=O)c1ccc(Cl)cc1` [Example 44, (S)-4-Chloro-N-(1-(4-hydroxypiperidin-1-yl)pentan-2-yl)-N-methylbenzamide], under setting [1], the IC50 worked out at 810 nM.

As for `CCC[C@@H](CN1CCC(OC)CC1)N(C)C(=O)c1ccc(Cl)cc1` [Example 45, (S)-4-Chloro-N-(1-(4-methoxypiperidin-1-yl)pentan-2-yl)-N-methylbenzamide], the half-inhibitory concentration (IC50) under setting [1] came out at 680 nM.

For `CCC[C@@H](CN1CC[C@H](O)C1)N(C)C(=O)c1ccc(C#N)cc1` [Example 46.1, 4-Cyano-N-((S)-1-((S)-3-hydroxypyrrolidin-1-yl)pentan-2-yl)-N-methylbenzamide], the IC50 under setting [1] was 8000 nM.

With `CCC[C@@H](CN1CC[C@H](O)C1)N(C)C(=O)c1ccc(Cl)cc1` [Example 46.2, 4-Chloro-N—((S)-1-((S)-3-hydroxypyrrolidin-1-yl)pentan-2-yl)-N-methylbenzamide], the IC50 under setting [1] was 5500 nM.

`Cc1cc(C(=O)N(C)[C@H](CN2C[C@@H](O)[C@H](O)C2)C(C)C)ccc1F` [N-((S)-1-((3R,4R)-3,4-Dihydroxypyrrolidin-1-yl)-3-methylbutan-2-yl)-4-fluoro-N,3-dimethylbenzamide]: the concentration for half-maximal inhibition (IC50) under setting [2] is above 27000 nM.

As to `CC(C)[C@@H](CCN1CCCC1)N(C)C(=O)c1ccccc1` [N-Methyl-N-[(1R)-2-methyl-1-(2-pyrrolidin-1-ylethyl)propyl]benzamide], the IC50 under setting [2] is above 27000 nM.

As to `CC(C)[C@H](CN1CCCC1)N(C)C(=O)c1ccccc1OC(F)(F)F` [N-Methyl-N-[(1R)-2-methyl-1-(pyrrolidin-1-ylmethyl)propyl]-2-(trifluoromethoxy)benzamide], under setting [2], the half-maximal inhibitory concentration (IC50) is above 27000 nM.

Regarding `CC(C)[C@@H](CN1CCCCC1)N(C)C(=O)c1ccc(OC(F)(F)F)cc1` [N-Methyl-N-[(1S)-2-methyl-1-(piperidin-1-ylmethyl)propyl]-4-(trifluoromethoxy)benzamide], the IC50 under setting [2] is above 27000 nM.

Consider `CC(C)[C@@H](CN1CCCC1)N(C)C(=O)c1ccccc1` [N-Methyl-N-[(1S)-2-methyl-1-(pyrrolidin-1-ylmethyl)propyl]benzamide], for which, under setting [2], the concentration for half-maximal inhibition (IC50) was above 27000 nM.

For the compound `COc1cccc(C(=O)N(C)[C@H](CN2CCCC(F)(F)C2)C(C)C)c1` [N-[(1S)-1-[(3,3-Difluoro-1-piperidyl)methyl]-2-methyl-propyl]-3-methoxy-N-methyl-benzamide], the IC50 under setting [2] is above 27000 nM.

On to `Cc1cccc(C(=O)N(C)[C@H](CN2CC[C@H](O)C2)C(C)C)c1` [N-[(1S)-1-{[(3S)-3-Hydroxypyrrolidin-1-yl]methyl}-2-methylpropyl]-N,3-dimethylbenzamide], for which the 50% inhibitory concentration (IC50) under setting [2] was above 27000 nM.

On to `CN(C(=O)c1ccc(C#N)cc1)[C@H](CN1CCC1)C1CC1` [N-[(1S)-2-(Azetidin-1-yl)-1-cyclopropyl-ethyl]-4-cyano-N-methyl-benzamide], for which the 50% inhibitory concentration (IC50) under setting [2] was above 27000 nM.
